What was measured:
Type in all cases: toxicity, cell-based
[1] = system: HEK-293T; assay: Incucyte cell viability with HEK293T; settings: human, 10 µM, compound concentration 10 uM
[2] = system: Fibroblast; assay: Incucyte cell viability with human fibroblast; settings: 10 µM, compound concentration 10 uM
[3] = system: U2OS; assay: Incucyte cell viability with U2OS; settings: human, 10 µM, compound concentration 10 uM
[4] = 6 h, replicate number 1, timepoint 6 hours
[5] = 6 h, replicate number 2, timepoint 6 hours
[6] = 12 h, replicate number 1, timepoint 12 hours
[7] = 12 h, replicate number 2, timepoint 12 hours
[8] = 18 h, replicate number 1, timepoint 18 hours
[9] = 18 h, replicate number 2, timepoint 18 hours
[10] = 24 h, replicate number 1, timepoint 24 hours
[11] = 24 h, replicate number 2, timepoint 24 hours
[12] = 0 h, replicate number 1, timepoint 0 hours
[13] = 0 h, replicate number 2, timepoint 0 hours
Also: unitless GR value; below 1 slowed growth and below 0 cell loss.

| SMILES | Growth Rate [1, 4] | Growth Rate [1, 5] | Growth Rate [1, 6] | Growth Rate [1, 7] | Growth Rate [1, 8] | Growth Rate [1, 9] | Growth Rate [1, 10] | Growth Rate [1, 11] | Growth Rate [2, 12] | Growth Rate [2, 6] | Growth Rate [2, 7] | Growth Rate [3, 4] | Growth Rate [3, 6] | Growth Rate [3, 7] | Growth Rate [3, 8] | Growth Rate [3, 9] | Growth Rate [3, 10] | Growth Rate [3, 11] | Growth Rate [2, 13] | Growth Rate [2, 4] | other results |
| --- | --- | --- | --- | --- | --- | --- | --- | --- | --- | --- | --- | --- | --- | --- | --- | --- | --- | --- | --- | --- | --- |
| CSc1ccccc1N1CCN(CCCCCC(=O)NC2CCCc3ccccc32)CC1.Cl (centres undefined) | -0.01 | -0.04 | 0.07 | -0.09 | 0.16 | 0.15 | 0.29 | 0.17 | 0.06 | 0.31 | 0.26 | 0.17 | 0.43 | 0.96 | 0.53 | 0.92 | 0.76 | 0.94 |  |  | Growth Rate [2, 5]: 0.95; Growth Rate [2, 8]: 0.05; Growth Rate [2, 9]: 0.24; Growth Rate [2, 10]: -0.06; Growth Rate [2, 11]: 0.23; Growth Rate [3, 12]: -0.43; Growth Rate [3, 13]: 0.92 |
| CCC(=O)NCC[C@@H]1CCc2ccc3c(c21)CCO3 [RAMELTEON] | 0.99 |  |  |  |  |  | 0.86 |  | 0.51 | 0.96 | 0.73 | 0.45 | 0.54 |  | 0.88 |  | 0.82 |  | 0.17 | 0.76 | Growth Rate [1, 12]: 0.12; Growth Rate [1, 13]: -0.36; Growth Rate [2, 5]: 0.51; Growth Rate [2, 8]: 0.96; Growth Rate [2, 9]: 0.83; Growth Rate [2, 10]: 0.77; Growth Rate [2, 11]: 0.89; Growth Rate [3, 12]: -0.01 |
| CCCCCCCCc1ccc(CCC(N)(CO)CO)cc1 [FINGOLIMOD] | -0.74 | -0.91 | -0.52 | -0.63 | -0.41 | -0.5 | -0.33 | -0.4 |  | -0.88 | -0.71 | -0.97 | -0.74 | -0.31 | -0.23 |  | 0.13 | -0.13 |  | -0.91 | Growth Rate [2, 5]: -0.95; Growth Rate [2, 8]: -0.82; Growth Rate [2, 9]: -0.59; Growth Rate [2, 10]: -0.7; Growth Rate [2, 11]: -0.42; Growth Rate [3, 5]: -0.45 |
| COC(=O)Nc1nc2ccc(C(=O)c3cccs3)cc2[nH]1 [NOCODAZOLE] | -0.46 | -0.49 | -0.24 | -0.32 | -0.22 | -0.34 | -0.22 | -0.26 |  | -0.6 | -0.2 | 0.3 | 0.1 | -0.16 | 0.03 | -0.36 | -0.06 | -0.35 |  | -0.86 | Growth Rate [2, 5]: -0.39; Growth Rate [2, 8]: -0.54; Growth Rate [2, 9]: -0.04; Growth Rate [2, 10]: -0.33; Growth Rate [2, 11]: 0.08; Growth Rate [3, 5]: 0.24 |
| Cc1ccccc1N1CCN(S(=O)(=O)C[C@]23CC[C@H](C[C@@H]2NC(=O)[C@@H](N)CCS(C)(=O)=O)C3(C)C)CC1.Cl | 0.8 |  | 0.81 | 0.75 | 0.84 | 0.92 | 0.97 | 0.93 | 0.33 |  | 0.8 | 0.91 | 0.85 |  | 0.77 |  | 0.89 | 1 | 0.56 |  | Growth Rate [1, 12]: 0.81; Growth Rate [1, 13]: 0.34; Growth Rate [2, 9]: 0.91; Growth Rate [2, 11]: 0.76; Growth Rate [3, 12]: -0.8; Growth Rate [3, 13]: -0.25 |
| CC(=O)NCCc1c(Cc2ccccc2)[nH]c2ccccc12 [LUZINDOLE] |  | 0.58 | 0.96 |  |  |  |  |  |  | 0.94 |  | 0.72 |  | 0.87 |  | 0.76 |  | 0.88 | 0.86 | 0.87 | Growth Rate [3, 12]: 0.42; Growth Rate [3, 5]: 0.96 |
| CC[C@@]1(O)C(=O)OCc2c1cc1n(c2=O)Cc2cc3ccccc3nc2-1 [CAMPTOTHECIN] | -0.29 |  | 0.88 |  |  |  | 0.65 | 0.41 | -0.02 |  |  | 0.7 | 0.75 | 0.64 | 0.59 | 0.33 | 0.48 | 0.2 | 0.11 | 1 | Growth Rate [1, 12]: -0.84; Growth Rate [1, 13]: 0.83; Growth Rate [3, 12]: -0.11; Growth Rate [3, 13]: -0.34; Growth Rate [3, 5]: 0.82 |
| Cl.Cl.OCCOCCN1CCN(C(c2ccccc2)c2ccc(Cl)cc2)CC1 (centres undefined) [HYDROXYZINE HYDROCHLORIDE] | 0.77 | 0.15 | 0.52 | 0.45 | 0.19 | 0.39 | 0.04 | 0.32 |  | 0.82 |  | 0.46 |  |  |  |  |  |  | 0.31 | 0.49 | Growth Rate [2, 8]: 0.88; Growth Rate [2, 10]: 0.77; Growth Rate [3, 13]: -1 |
| Cc1noc(-c2ccc(-c3ccc(CC(=O)O)cc3)cc2)c1NC(=O)O[C@H](C)c1ccccc1Cl |  |  | 0.85 |  | 0.67 |  | 0.81 |  | -0.69 |  |  |  |  | 0.92 |  | 0.93 |  | 0.95 | 0.54 |  | Growth Rate [3, 5]: 0.82 |
| COC[C@@H](CC(C)C)NC1=N/C(=C\c2ccc3ncsc3c2)C(=O)N1C | 0.84 |  | 0.24 | 0.41 | 0.39 | 0.38 | 0.48 | 0.42 | 0.25 |  |  |  | 0.43 | 0.53 | 0.22 | 0.38 | 0.25 | 0.35 | -0.23 |  | Growth Rate [1, 12]: -0.43; Growth Rate [1, 13]: -0.15; Growth Rate [3, 13]: 0.78 |

From ChEMBL document CHEMBL5058564, “EUbOPEN Chemogenomics Library 2 (Incucyte)” (2022)
